Assays:
[1] = test system: anti-dinitrophenyl (DNP) IgG2a antibody titer; assay: Mouse model producing antibody (anti-DNP IgG2a antibody titer in serum, ELISA); format: in vivo, BALB/c mice; conditions: for effect on anti-DNP IgG2a: dose 0.1 mg/kg oral once every day for 10 days, 10th day after immunization
Method: BALB/c mice were immunized by administering dinitrophenylated keyhole limpet hemocyanin (DNP-KLH) as antigen intraperitoneally into them in a dose of 100 μg/mouse along with Freund's complete adjuvant. On the 10th day after the day on which the mice were immunized, blood was collected from the orbital venous plexus of the animals under anesthesia with ether and examined for anti-dintrophenyl (DNP) IgG2a antibody titer in serum by the ELISA method.
The test compounds B, E, F, G and H were suspended in 0.5% aqueous methyl cellulose solution and orally administered into the animals once every day for 10 days from the day when the animals were immunized with DNP-KLH. The medium was administered into the control group.

human RARα = target: T1, human RARα (Homo sapiens, UniProt P10276); assay: RAR binding assay (inhibition of 3H-all-trans-retinoic acid binding), RAR-α; parameters: expressed in transfected cells; conditions: nuclear extract of BHK cells expressing human RARα, read-out: Receptor binding assay IC50 (nM) RAR-α
T1 sequence (P10276 1-462): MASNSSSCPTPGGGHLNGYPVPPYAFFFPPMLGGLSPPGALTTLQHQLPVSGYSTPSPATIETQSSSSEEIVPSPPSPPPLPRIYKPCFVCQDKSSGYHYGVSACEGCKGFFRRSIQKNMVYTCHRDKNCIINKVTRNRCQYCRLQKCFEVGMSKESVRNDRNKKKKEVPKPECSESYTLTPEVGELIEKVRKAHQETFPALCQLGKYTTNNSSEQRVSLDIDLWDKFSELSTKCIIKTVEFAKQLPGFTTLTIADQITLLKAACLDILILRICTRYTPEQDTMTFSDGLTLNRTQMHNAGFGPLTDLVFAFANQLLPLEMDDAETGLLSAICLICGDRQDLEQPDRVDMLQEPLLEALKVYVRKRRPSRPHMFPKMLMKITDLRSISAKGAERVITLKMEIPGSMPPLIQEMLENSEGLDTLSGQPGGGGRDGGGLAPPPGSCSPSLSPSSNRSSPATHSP
Method: (§1) Cells constantly expressing RARα, β and γ proteins were prepared by introducing human RARα, β and γ genes into BHK (baby hamster kidney) cells. A nuclear fraction of these cells was used to construct an experimental system for measuring the specific binding of all-trans-retinoic acid to RAR, and in this experimental system, the ability of each test compound to bind to […] was examined by measuring the degree of inhibition of binding. Further, the ability of each test compound to bind to each receptor subtype was compared to determine the selectivity of the compound for RAR subtype.
(§2) 5×10^8 BHK cells having the RAR gene introduced into them were suspended in 15 ml solution A (5 mM sodium phosphate (pH 7.4), 10 mM monothioglycerol, 10% (v/v) glycerol, 1 mM phenyl methyl sulfonyl fluoride (PMSF), 10 μg/ml aprotinin, 25 μg/ml leupeptin), then homogenized therein and centrifuged, and the supernatant was removed. The resulting pellet was suspended in 15 ml buffer B (10 mM Tris-HCl (pH 8.5), 10 mM monothioglycerol, 10% (v/v) glycerol, 1 mM PMSF, 10 μg/ml aprotinin, 25 μg/ml leupeptin, 0.4 M potassium chloride), then left at 4° C. for 1 hour and ultracentrifuged at 100,000×g, 4° C. for 1 hour. The resulting supernatant was frozen and stored as a nuclear extract fraction at −80° C. until use (Methods in Enzymology, 189, 248).
(§3) 180 μl of the extract fraction and 10 μl diluted solution of all-trans-retinoic acid or a test compound were added to each well on a 96-well plate made of polypropylene, and further 10 μl of 10 nM ^3H-all-trans-retinoic acid was added thereto and left at 4° C. for 16 hours. 3% charcoal-0.3% dextran solution was added to the reaction solution and centrifuged whereby free ^3H-all-trans-retinoic acid was separated, and the count in the supernatant was determined by a scintillation counter. The count when a 500-fold excess of non-labeled all-trans-retinoic acid was added was subtracted as unspecific binding from the value obtained, to determine the amount of each compound binding specifically to RAR.
(§4) The concentration (IC50) of each compound at which the binding of ^3H-all-trans-retinoic acid was inhibited by 50% was determined and the results are shown in Tables 3-1 and 3-2.

human RARβ = target: T2, human RARβ (Homo sapiens, UniProt P10826); assay: RAR binding assay (inhibition of 3H-all-trans-retinoic acid binding), RAR-β; parameters: expressed in transfected cells; conditions: nuclear extract of BHK cells expressing human RARβ, read-out: Receptor binding assay IC50 (nM) RAR-β
T2 sequence (P10826 1-455): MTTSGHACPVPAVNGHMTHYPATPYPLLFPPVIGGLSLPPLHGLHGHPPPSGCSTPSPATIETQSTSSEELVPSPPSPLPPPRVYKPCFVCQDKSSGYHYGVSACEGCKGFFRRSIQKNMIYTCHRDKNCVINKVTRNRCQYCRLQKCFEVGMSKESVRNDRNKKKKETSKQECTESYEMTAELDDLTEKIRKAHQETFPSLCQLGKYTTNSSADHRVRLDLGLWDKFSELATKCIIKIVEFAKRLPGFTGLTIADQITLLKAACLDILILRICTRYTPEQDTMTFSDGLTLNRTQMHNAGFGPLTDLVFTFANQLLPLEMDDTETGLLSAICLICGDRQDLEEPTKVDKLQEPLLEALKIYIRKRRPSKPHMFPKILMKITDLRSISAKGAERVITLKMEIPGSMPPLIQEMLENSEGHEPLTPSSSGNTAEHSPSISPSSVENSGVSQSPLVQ
Method: as §1, §2, §3, §4

human RARγ = target: T3, human RARγ (Homo sapiens, UniProt P13631); assay: RAR binding assay (inhibition of 3H-all-trans-retinoic acid binding), RAR-γ; parameters: expressed in transfected cells; conditions: nuclear extract of BHK cells expressing human RARγ, read-out: Receptor binding assay IC50 (nM) RAR-γ
T3 sequence (P13631 1-454): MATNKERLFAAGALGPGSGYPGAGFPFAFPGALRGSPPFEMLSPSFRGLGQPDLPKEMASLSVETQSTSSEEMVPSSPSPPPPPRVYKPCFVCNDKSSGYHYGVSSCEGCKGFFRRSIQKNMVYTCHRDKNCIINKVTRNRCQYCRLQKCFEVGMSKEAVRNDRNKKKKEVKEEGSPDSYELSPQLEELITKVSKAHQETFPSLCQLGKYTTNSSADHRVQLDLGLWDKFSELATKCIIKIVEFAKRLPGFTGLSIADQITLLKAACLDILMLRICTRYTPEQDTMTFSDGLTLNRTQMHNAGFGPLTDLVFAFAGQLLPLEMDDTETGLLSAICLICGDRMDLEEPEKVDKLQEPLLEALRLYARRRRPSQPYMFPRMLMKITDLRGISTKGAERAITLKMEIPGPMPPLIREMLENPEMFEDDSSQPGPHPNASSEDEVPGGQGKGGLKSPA
Method: as §1, §2, §3, §4

[2] = test system: accelerated Masugi nephritis; assay: Rat model with accelerated Masugi nephritis (proteins excreted in urine for 24 hours); format: in vivo, Sprague-Dawley strain rats; conditions: oral once every day, compared with the control group
Method: Sprague-Dawley strain rats were immunized by subcutaneously administering rabbit γ-globulin in a dose of 4 mg/rat along with Freund's complete adjuvant into the bottoms of their both hind legs. On the 5th day after the rats were immunized, 1 ml of anti-rat glomerular basement membrane rabbit serum diluted 6- or 8-fold was administered via tail veins into the animals. On the 8th day, the rats were forced to be orally administered 8 ml sterilized water and then placed in a metabolism cage, and their urine was collected for 24 hours during which the animals were allowed neither food nor water. As the indicator of the model with accelerated Masugi nephritis, the amount of proteins excreted in urine for 24 hours was used.
The medium was administered into the control group.

SMILES	IC50 (human RARα) [nM]	IC50 (human RARβ) [nM]	IC50 (human RARγ) [nM]	also measured
CCn1nc(-c2ccc(-c3ccc(C(=O)O)cc3)[nH]2)cc1C(C)C [G]	–	–	–	effect on anti-DNP IgG2a [1]: significantly inhibited
C[Si](C)(C)c1cc(C(=O)Nc2ccc(C(=O)O)cc2)cc([Si](C)(C)C)c1 [drawing 19]	6.4	> 500	> 500	–
CC1CCCN(C)c2ccc(-c3ccc(-c4ccc(C(=O)O)cc4)[nH]3)cc21 (centres unmarked) [Compound F, 4-{2-{5-[7-(1,5-dimethyl-2,3,4,5-tetrahydro-1H-benzazepinyl)]pyrrolyl}}benzoic acid]	–	–	–	Degree of Inhibition of Albuminuria (%) ([2]; dose 1.0 mg/kg, 1 mg/kg): 71.1%; effect on anti-DNP IgG2a [1]: significantly inhibited
CCc1ccc(C)c2cc(-c3ccc(-c4ccc(C(=O)O)cc4)[nH]3)oc12 [drawing 13]	< 0.5	160	270	–
CC1(C)CCCc2ncc(-c3ccc(-c4ccc(C(=O)O)cc4)[nH]3)nc21 [Compound E, 4-{2-{5-[2-(8,8-dimethyl-5,6,7,8-tetrahydroquinoxalynyl)]pyrrolyl}}benzoic acid]	–	–	–	Degree of Inhibition of Albuminuria (%) ([2]; dose 1.0 mg/kg, 1 mg/kg): 85.8%; effect on anti-DNP IgG2a [1]: significantly inhibited
COCc1cc2c(cc1-c1ccc(-c3ccc(C(=O)O)cc3)[nH]1)C(C)(C)CCC2(C)C [drawing 18]	10	230	83	–
Cc1ccc(C)c2c(F)c(-c3ccc(-c4ccc(C(=O)O)cc4)[nH]3)oc12 [drawing 12]	< 0.5	49	225	–
O=C(O)c1ccc(-c2ccc(-c3cc4c(F)ccc(Cl)c4o3)[nH]2)cc1	3.8	> 500	> 500	–
CCOC(=O)/C=C(C)/C=C/C=C(C)/C=C/c1c(C)cc(OC)c(C)c1C [etretinate, reference compound]	–	–	–	effect on production of anti-DNP antibody ([1]; 50 mg/kg, administered in the same manner as the test compounds): showed a tendency to inhibit
CC1(C)CCC(C)(C)c2nc(-c3ccc(-c4ccc(C(=O)O)cc4)[nH]3)cnc21 [drawing 14]	0.6	56	140	–
COCc1cc2c(cc1-c1ccc(-c3ccc(C(=O)O)cc3)[nH]1)C(C)(C)CCC2(C)C [Compound H, 4-{2-[5-(3-methoxymethyl-5,6,7,8-tetrahydro-5,5,8,8-tetramethylnaphthalene-2-yl)pyrrolyl}}benzoic acid]	–	–	–	Degree of Inhibition of Albuminuria (%) ([2]; dose 0.3 mg/kg, 0.3 mg/kg): 61.3%; effect on anti-DNP IgG2a [1]: showed a tendency to inhibit
O=C(O)c1ccc(-c2ccc(-c3cc4c(Cl)ccc(Cl)c4o3)[nH]2)cc1	1	–	> 500	–
Cc1ccc(C)c2oc(-c3ccc(-c4ccc(C(=O)O)cc4)[nH]3)cc12 [drawing 8]	1.4	340	> 500	–
O=C(O)c1ccc(-c2ccc(-c3cc4c(C(F)(F)F)ccc(F)c4o3)[nH]2)cc1 [drawing 11]	0.6	107	195	–
CC1CCCN(C)c2ncc(-c3ccc(-c4ccc(C(=O)O)cc4)[nH]3)nc21 (centres unmarked) [drawing 16]	1	58	130	–
C[Si](C)(C)c1cc(C(=O)Nc2ccc(C(=O)O)cc2)cc([Si](C)(C)C)c1 [Compound I, 4-{[(3,5-bistrimethylsilylphenyl)carbonyl]amino}benzoic acid]	–	–	–	Degree of Inhibition of Albuminuria (%) ([2]; dose 1.0 mg/kg, 1 mg/kg): 89.4%

Reference: patent US6355669B1, “Retinoic acid agonists as preventive and therapeutic agents for nephritis” (Eisai Co., Ltd., priority 1997, dated 2002)
